According to patent US20250002450A1, “CATIONIC STEROID COMPOUNDS, METHOD OF OBTAINING THEREOF, FORMULATIONS COMPRISING THEREOF AND THEIR USES” (UNIVERSIDADE DO PORTO, priority 2021, published 2025):
In brackets after ≈: the same amount, converted by molar mass.

What was measured:
[1] = test system: C. albicans ATCC 10231; experiment: Mitochondrial dehydrogenases activity, MTT reduction assay; type: cell-based, Candida albicans; settings: 8 μg/mL, 2 h
Procedure: In order to determine whether compound 1 could also affect mitochondrial function, MTT reduction assay was performed. In this assay, tetrazolium salts are reduced to purple formazan derivatives by mitochondrial dehydrogenases, which can be measured spectrophotometrically and reported to mitochondrial activity and, indirectly, to cell viability. In this assay, cells were exposed to the test compounds for 2 h ([FIG. 11]). […] An increase in reactive oxygen species (ROS) has been linked to azoles activity: even though their primary mode of action is the inhibition of ergosterol synthesis, they also induce accumulation of ROS, which enhances their antifungal activity and translates into an increase in mitochondrial activity at inhibitory concentrations. […] Mitochondrial dehydrogenase activity was evaluated by the MTT assay, as previously described, with some modifications. Cell suspensions of C. albicans ATCC 10231 were prepared in the same manner as described above and, after overnight incubation at 36° C., were centrifuged at 3500 rpm for 15 min, the supernatant was removed, and the cells were carefully resuspended in 2 mL of RPMI. Test conditions and controls were the same as described above, but the time of exposure to the test compounds was 2 h. After the exposure time, cell suspensions were centrifuged at 3500 rpm for 10 min, the supernatant was removed, and 500 μL of MTT solution (0.5 mg/mL in RPMI, at 35° C.) (Thiazolyl Blue Tetrazolium Bromide, Alfa Aesar, Ward Hill, MA, USA) were added. After a 1 h incubation at 35° C., the insoluble formazan product resulting from the conversion of MTT by mitochondrial dehydrogenases of metabolically active cells was solubilized with 300 μL of DMSO. 100 μL of each sample were transferred in duplicate to a microtiter plate and the extent of the reduction of MTT to formazan was quantified by measuring the absorbance at 570 nm. Three independent assays were performed in duplicate, and the results are expressed as percentage of MTT reduction, using the untreated cells as control.

[2] = test system: E. coli ATCC 25922; experiment: Checkerboard synergy with erythromycin; type: cell-based, Escherichia coli; settings: Escherichia coli
Procedure: The combined effect of compound 1 and CTX for E. coli SA/2, VAN for E. faecalis B3/101, COL for E. coli 2252, erythromycin for E. coli ATCC 25922, and OXA for S. aureus 66/1 was evaluated by the checkerboard method. […] The interaction between compound 1 and erythromycin was assessed for E. coli ATCC 25922. Gram-negative bacteria are intrinsically resistant to erythromycin, a macrolide that inhibits protein synthesis, and cannot penetrate the outer membrane of Gram-negative bacteria, which is impermeable to hydrophobic antibiotics. Ascertain ceragenins have been previously described to be able to enhance the efficacy of such antibiotics, this possibility was investigated for compound 1 and a FICI of 0.6 was obtained.

[3] = test system: C. albicans ATCC 10231; experiment: Ergosterol binding assay; type: cell-based, Candida albicans
Procedure: Ceragenins have been described to interact with the lipophilic environment of microbial membranes and ergosterol is the major sterol component of fungal plasma membrane, and the target of several antifungals. As such, in order to evaluate the ability of compound 1 to bind to membrane ergosterol of C. albicans ATCC 10231, MICs were determined in the absence and presence of exogenous ergosterol ([FIG. 10]). If the tested compound has the ability to perturb membrane integrity by binding to ergosterol, is expected that, in the presence of exogenous ergosterol, the compound binds to it, decreasing the amount of compound available to bind to membrane ergosterol, therefore increasing the MIC. Amphotericin B was used as a positive control for this assay and MICs obtained were 8 times higher in the presence of 400 μg/mL of exogenous ergosterol than in its absence (2 to 16 μg/mL, data not shown). […] The ability of compound 1 to bind to membrane ergosterol of C. albicans ATCC 10231, was evaluated by the ergosterol binding assay, as previously described. Briefly, MICs of compound 1 were determined by broth microdilution, as described above, in the absence and presence of ergosterol (Sigma-Aldrich, St. Louis, MO, USA) at a final concentration of 400 μg/mL. Ergosterol was prepared immediately before being added to the plates, by maceration and dissolution in DMSO. The formed emulsion was then homogenized, heated to increase solubility, and diluted in RPMI. Amphotericin B was used as positive control. Plates were incubated at 35° C. for 48 h and MICs were determined as described above. At least two independent assays were performed.

[4] = test system: C. albicans ATCC 10231; experiment: Propidium iodide influx assay (SYTO 9/PI); type: cell-based, Candida albicans; settings: 8 μg/mL, 5 min

| MIC ([2]; ATCC25922, E. coli ATCC 25922, erythromycin alone) [µg/mL] | MIC ([2]; ATCC25922, E. coli ATCC 25922, with 16 μg/mL of compound 1 (½×MIC)) [µg/mL] | increase of MIC in the presence of exogenous ergosterol ([3]; 400 μg/mL ergosterol vs absence) [times] | MIC ([3]; absence of exogenous ergosterol) [µg/mL] | MIC ([3]; presence of 400 μg/mL of exogenous ergosterol) [µg/mL] | Compound | mitochondrial activity (MTT reduction) vs untreated control [1] | reduction of SYTO 9/PI ratio vs untreated control [4] |
| --- | --- | --- | --- | --- | --- | --- | --- |
|  |  |  |  |  | C[C@@H](c1ncncc1F)[C@](O)(Cn1cncn1)c1ccc(F)cc1F [VRC, voriconazole] | identical effect |  |
| 16 | 0.125 |  |  |  | CC[C@H]1OC(=O)[C@H](C)[C@@H](O[C@H]2C[C@@](C)(OC)[C@@H](O)[C@H](C)O2)[C@H](C)[C@@H](O[C@@H]2O[C@H](C)C[C@H](N(C)C)[C@H]2O)[C@](C)(O)C[C@@H](C)C(=O)[C@H](C)[C@@H](O)[C@]1(C)O [erythromycin, reference compound] |  |  |
|  |  | 8 | 2 (≈ 2.16 µM) | 16 | C[C@@H]1[C@H](O)[C@@H](C)/C=C/C=C/C=C/C=C/C=C/C=C/C=C/[C@H](O[C@@H]2O[C@H](C)[C@@H](O)[C@H](N)[C@@H]2O)C[C@@H]2O[C@](O)(C[C@@H](O)C[C@@H](O)[C@H](O)CC[C@@H](O)C[C@@H](O)CC(=O)O[C@H]1C)C[C@H](O)[C@H]2C(=O)O [Amphotericin B] | significantly reduced | statistically significant |
